{"source": "patent US12564638B2", "about": "(SHANGHAITECH UNIVERSITY, priority 2019, dated 2026)"}
{"tested_on": "HCC827 cells (EGFR Exon19 del, non-small cell lung cancer cells)", "assay": "Cell viability assay (WST/CCK8), HCC827 cells", "type": "cell-based", "conditions": "Homo sapiens, HCC827, 72 h, HCC827 (Exon19 Del), 72 hours, WST (CCK8); read-out: IC50 (half inhibitory concentration)", "text": "(§1) The cell lines with abnormal EGFR expression used are as follows: • HCC827 cells (EGFR Exon19 del, non-small cell lung cancer cells); • PC9 cells (EGFR Exon 19 del, non-small cell lung cancer cells); • PC9BracA1 (EGFR Exon 19 del+T790M, non-small cell lung cancer cells) • H1975 (EGFR Exon T790M+L858R mutation, non-small cell lung cancer cell line) • BT474 cells (HER2 positive breast cancer cells)\n(§2) All of the half inhibitory concentrations (IC50) of these compounds of the present invention were determined with WST reagent from Fuyuan Biotec Company. The specific experiment procedures are as follows: Cancer cells were planted in 96-well-plate at the density of 3 000 cells per well with 100 μL RPMI1640 completed culture medium. In the next day, compounds with indicated concentrations were added to the cells, DMSO was used as the negative control and the EGFR TKIs were used to treat cells as the positive groups. After 72 hours drug treatment, cell viability was measured by using the WST reagent following the instructions.\n(§3) The cells were treated with the gradient concentration of these compounds (the maximum concentration: 10 μM; 3-fold dilution ratio, 10 concentration gradients) for 72 hours and then incubated with the WST (CCK8) reagent to determine the cell viability.", "units": {"IC50": "nM"}}
{"smiles": "COc1cc2ncnc(Nc3ccc(F)c(Cl)c3)c2cc1NC(=O)/C=C/CN1CCN(C(=O)CCCCC(=O)N[C@H](C(=O)N2C[C@H](O)C[C@H]2C(=O)NCc2ccc(-c3scnc3C)cc2)C(C)(C)C)CC1", "note": "[SIAIS249042, (2S,4R)-1-((S)-2-(6-(4-((E)-4-((4-((3-chloro-4-fluorophenyl)amino)-7-methoxyquinazolin-6-yl)amino)-4-oxobut-2-en-1-yl)piperazin-1-yl)-6-oxohexanamido)-3,3-dimethylbutanoyl)-4-hydroxy-N-(4-(4-methylthiazol-5-yl)benzyl)pyrrolidine-2-carboxamide]", "IC50": 31.3}
{"smiles": "COc1cc2ncnc(Nc3ccc(F)c(Cl)c3)c2cc1NC(=O)/C=C/CN1CCN(C(=O)CCOCCOCCOCCNc2cccc3c2C(=O)N(C2CCC(=O)NC2=O)C3=O)CC1", "note": "(stereo not shown) [SIAIS249047, (E)-N-(4-((3-chloro-4-fluorophenyl)amino)-7-methoxyquinazolin-6-yl)-4-(4-(3-(2-(2-(2-((2-(2,6-dioxopiperidin-3-yl)-1,3-dioxoisoindolin-4-yl)amino)ethoxy)ethoxy)ethoxy)propanoyl)piperazin-1-yl)but-2-enamide]", "IC50": 23.6}
{"smiles": "COc1cc2ncnc(Nc3ccc(F)c(Cl)c3)c2cc1NC(=O)/C=C/CN1CCN(C(=O)COCCOCCOCCOCCSc2cccc3c2CN(C2CCC(=O)NC2=O)C3=O)CC1", "note": "(stereo not shown) [SIAIS262003, (E)-N-(4-((3-chloro-4-fluorophenyl)amino)-7-methoxyquinazolin-6-yl)-4-(4-(14-((2-(2,6-dioxopiperidin-3-yl)-1-oxoisoindolin-4-yl)thio)-3,6,9,12-tetraoxatetradecan-1-oyl)piperazin-1-yl)but-2-enamide]", "IC50": 104}
{"tested_on": "HCC827 cells (EGFR Exon19 del, non-small cell lung cancer cells)", "assay": "Cell viability assay (WST/CCK8), HCC827 cells", "type": "cell-based", "conditions": "Homo sapiens, HCC827, 72 h, Table 3, poziotinib-based compounds; HCC827 (Exon19 Del); 72 hours; WST (CCK8); read-out: IC50 (half inhibitory concentration)", "text": "as §1, §2, §3", "units": {"IC50": "nM"}}
{"smiles": "COc1cc2ncnc(Nc3ccc(Cl)c(Cl)c3F)c2cc1OC1CCN(C(=O)CCCCC(=O)N[C@H](C(=O)N2C[C@H](O)C[C@H]2C(=O)NCc2ccc(-c3scnc3C)cc2)C(C)(C)C)CC1", "note": "[SIAIS249021, (2S,4R)-1-((S)-2-(6-(4-((4-((3,4-dichloro-2-fluorophenyl)amino)-7-methoxyquinazolin-6-yl)oxy)piperidin-1-yl)-6-oxohexanamido)-3,3-dimethylbutanoyl)-4-hydroxy-N-(4-(4-methylthiazol-5-yl)benzyl)pyrrolidine-2-carboxamide]", "IC50": 75.4}
{"smiles": "COc1cc2ncnc(Nc3ccc(Cl)c(Cl)c3F)c2cc1OC1CCN(C(=O)CCCCCCC(=O)N[C@H](C(=O)N2C[C@H](O)C[C@H]2C(=O)NCc2ccc(-c3scnc3C)cc2)C(C)(C)C)CC1", "note": "[SIAIS249022, (2S,4R)-1-((S)-2-(8-(4-((4-((3,4-dichloro-2-fluorophenyl)amino)-7-methoxyquinazolin-6-yl)oxy)piperidin-1-yl)-8-oxooctanamido)-3,3-dimethylbutanoyl)-4-hydroxy-N-(4-(4-methylthiazol-5-yl)benzyl)pyrrolidine-2-carboxamide]", "IC50": 40}
{"smiles": "COc1cc2ncnc(Nc3ccc(Cl)c(Cl)c3F)c2cc1OC1CCN(C(=O)CCCCCCCCC(=O)N[C@H](C(=O)N2C[C@H](O)C[C@H]2C(=O)NCc2ccc(-c3scnc3C)cc2)C(C)(C)C)CC1", "note": "[SIAIS249023, (2S,4R)-1-((S)-2-(10-(4-((4-((3,4-dichloro-2-fluorophenyl)amino)-7-methoxyquinazolin-6-yl)oxy)piperidin-1-yl)-10-oxodecanamido)-3,3-dimethylbutanoyl)-4-hydroxy-N-(4-(4-methylthiazol-5-yl)benzyl)pyrrolidine-2-carboxamide]", "IC50": 49}
{"smiles": "COc1cc2ncnc(Nc3ccc(Cl)c(Cl)c3F)c2cc1OC1CCN(C(=O)COCCOCC(=O)N[C@H](C(=O)N2C[C@H](O)C[C@H]2C(=O)NCc2ccc(-c3scnc3C)cc2)C(C)(C)C)CC1", "note": "[SIAIS249024, (2S,4R)-1-((S)-2-(2-(2-(2-(4-((4-((3,4-dichloro-2-fluorophenyl)amino)-7-methoxyquinazolin-6-yl)oxy)piperidin-1-yl)-2-oxoethoxy)ethoxy)acetamido)-3,3-dimethylbutanoyl)-4-hydroxy-N-(4-(4-methylthiazol-5-yl)benzyl)pyrrolidine-2-carboxamide]", "IC50": 174}
{"smiles": "COc1cc2ncnc(Nc3ccc(Cl)c(Cl)c3F)c2cc1OC1CCN(C(=O)CCOCCOCCC(=O)N[C@H](C(=O)N2C[C@H](O)C[C@H]2C(=O)NCc2ccc(-c3scnc3C)cc2)C(C)(C)C)CC1", "note": "[SIAIS249025, (2S,4R)-1-((S)-2-(3-(2-(3-(4-((4-((3,4-dichloro-2-fluorophenyl)amino)-7-methoxyquinazolin-6-yl)oxy)piperidin-1-yl)-3-oxopropoxy)ethoxy)propanamido)-3,3-dimethylbutanoyl)-4-hydroxy-N-(4-(4-methylthiazol-5-yl)benzyl)pyrrolidine-2-carboxamide]", "IC50": 158}
{"smiles": "COc1cc2ncnc(Nc3ccc(Cl)c(Cl)c3F)c2cc1OC1CCN(C(=O)CCOCCOCCOCCC(=O)N[C@H](C(=O)N2C[C@H](O)C[C@H]2C(=O)NCc2ccc(-c3scnc3C)cc2)C(C)(C)C)CC1", "note": "[SIAIS249026, (2S,4R)-1-((S)-2-(tert-butyl)-16-(4-((4-((3,4-dichloro-2-fluorophenyl)amino)-7-methoxyquinazolin-6-yl)oxy)piperidin-1-yl)-4,16-dioxo-7,10,13-trioxa-3-azahexadecan-1-oyl)-4-hydroxy-N-(4-(4-methylthiazol-5-yl)benzyl)pyrrolidine-2-carboxamide]", "IC50": 266}
{"smiles": "COc1cc2ncnc(Nc3ccc(Cl)c(Cl)c3F)c2cc1OC1CCN(C(=O)CCOCCOCCOCCOCCC(=O)N[C@H](C(=O)N2C[C@H](O)C[C@H]2C(=O)NCc2ccc(-c3scnc3C)cc2)C(C)(C)C)CC1", "note": "[SIAIS249027, (2S,4R)-1-((S)-2-(tert-butyl)-19-(4-((4-((3,4-dichloro-2-fluorophenyl)amino)-7-methoxyquinazolin-6-yl)oxy)piperidin-1-yl)-4,19-dioxo-7,10,13,16-tetraoxa-3-azanonadecan-1-oyl)-4-hydroxy-N-(4-(4-methylthiazol-5-yl)benzyl)pyrrolidine-2-carboxamide]", "IC50": 400}
{"smiles": "COc1cc2ncnc(Nc3ccc(Cl)c(Cl)c3F)c2cc1OC1CCN(C(=O)CCOCCOCCOCCOCCOCCC(=O)N[C@H](C(=O)N2C[C@H](O)C[C@H]2C(=O)NCc2ccc(-c3scnc3C)cc2)C(C)(C)C)CC1", "note": "[SIAIS249028, (2S,4R)-1-((S)-2-(tert-butyl)-22-(4-((4-((3,4-dichloro-2-fluorophenyl)amino)-7-methoxyquinazolin-6-yl)oxy)piperidin-1-yl)-4,22-dioxo-7,10,13,16,19-pentaoxa-3-azadocosan-1-oyl)-4-hydroxy-N-(4-(4-methylthiazol-5-yl)benzyl)pyrrolidine-2-carboxamide]", "IC50": 240}
{"smiles": "COc1cc2ncnc(Nc3ccc(Cl)c(Cl)c3F)c2cc1OC1CCN(C(=O)CCOCCNc2cccc3c2C(=O)N(C2CCC(=O)NC2=O)C3=O)CC1", "note": "(stereo not shown) [SIAIS249029, 4-((2-(3-(4-((4-((3,4-dichloro-2-fluorophenyl)amino)-7-methoxyquinazolin-6-yl)oxy)piperidin-1-yl)-3-oxopropoxy)ethyl)amino)-2-(2,6-dioxopiperidin-3-yl)isoindoline-1,3-dione]", "IC50": 80}
{"smiles": "COc1cc2ncnc(Nc3ccc(Cl)c(Cl)c3F)c2cc1OC1CCN(C(=O)CCOCCOCCNc2cccc3c2C(=O)N(C2CCC(=O)NC2=O)C3=O)CC1", "note": "(stereo not shown) [SIAIS249030, 4-((2-(2-(3-(4-((4-((3,4-dichloro-2-fluorophenyl)amino)-7-methoxyquinazolin-6-yl)oxy)piperidin-1-yl)-3-oxopropoxy)ethoxy)ethyl)amino)-2-(2,6-dioxopiperidin-3-yl)isoindoline-1,3-dione]", "IC50": 6.3}
{"smiles": "COc1cc2ncnc(Nc3ccc(Cl)c(Cl)c3F)c2cc1OC1CCN(C(=O)CCOCCOCCOCCNc2cccc3c2C(=O)N(C2CCC(=O)NC2=O)C3=O)CC1", "note": "(stereo not shown) [SIAIS249031, 4-((2-(2-(2-(3-(4-((4-((3,4-dichloro-2-fluorophenyl)amino)-7-methoxyquinazolin-6-yl)oxy)piperidin-1-yl)-3-oxopropoxy)ethoxy)ethoxy)ethyl)amino)-2-(2,6-dioxopiperidin-3-yl)isoindoline-1,3-dione]", "IC50": 28.2}
{"smiles": "COc1cc2ncnc(Nc3ccc(Cl)c(Cl)c3F)c2cc1OC1CCN(C(=O)CCOCCOCCOCCOCCNc2cccc3c2C(=O)N(C2CCC(=O)NC2=O)C3=O)CC1", "note": "(stereo not shown) [SIAIS249032, 4-((15-(4-((4-((3,4-dichloro-2-fluorophenyl)amino)-7-methoxyquinazolin-6-yl)oxy)piperidin-1-yl)-15-oxo-3,6,9,12-tetraoxapentadecyl)amino)-2-(2,6-dioxopiperidin-3-yl)isoindoline-1,3-dione]", "IC50": 11}
{"smiles": "COc1cc2ncnc(Nc3ccc(Cl)c(Cl)c3F)c2cc1OC1CCN(C(=O)CCOCCOCCOCCOCCOCCNc2cccc3c2C(=O)N(C2CCC(=O)NC2=O)C3=O)CC1", "note": "(stereo not shown) [SIAIS249033, 4-((18-(4-((4-((3,4-dichloro-2-fluorophenyl)amino)-7-methoxyquinazolin-6-yl)oxy)piperidin-1-yl)-18-oxo-3,6,9,12,15-pentaoxaoctadecyl)amino)-2-(2,6-dioxopiperidin-3-yl)isoindoline-1,3-dione]", "IC50": 13}
